The structures appear in SMILES notation. pIC50: −log10 of the molar value. Active and inactive are the calls of the source. The rule behind the calls is not given here.

By pIC50 is commonly meant −log10 of the IC50, conventionally taken in molar units.

Assay [1] addresses T1, Indoleamine 2,3-dioxygenase 1 (Homo sapiens, UniProt P14902). The assay can be described thus: Inhibition of human recombinant IDO1 assessed as reduction in N-formylkynurenine formation using L-tryptophan as substrate preincubated for 30 mins followed by substrate addition and measured after 10 mins by SpectraMax microplate reader analysis.
For assay [2], the target named is T1, Indoleamine 2,3-dioxygenase 1. The assay can be described thus: Inhibition of human recombinant IDO1 in human HeLa cells assessed as reduction in N-formylkynurenine formation using L-tryptophan as substrate preincubated for 24 hrs followed by substrate addition and measured after 30 mins. The assay is classed as cell-based.
The test system of assay [3] is A549. Briefly: Antitumor activity against NAMPT inhibitor-resistant A549 cells xenografted in athymic nude mouse assessed as tumor growth inhibition at 2 mg/kg, iv bid measured on day 21 by caliper method. The assay is classed as functional, Homo sapiens. As to conditions: A549, 504 h, time 21 day, read-out: TGI.
In assay [4] the test system is A549. The assay can be described thus: Antiproliferative activity against NAMPT inhibitor-resistant A549 cells assessed as reduction in cell viability measured for 48 hrs by CCK-8 assay. As to conditions: Homo sapiens. Background: Tetrazolium dyes change colour on reduction, which living cells bring about.
For assay [5], the system named is A549. Briefly: Antiproliferative activity against NAMPT inhibitor-resistant A549 cells assessed as reduction in cell viability measured for 48 hrs in presence of epacadostat by CCK-8 assay. The assay is classed as functional, cell-based. As to conditions: Homo sapiens, A549, 48 h.
The subject of assay [6] is A549. Briefly: cells. As to conditions: Homo sapiens, A549, 48 h.
The target of assay [7] is Nicotinamide phosphoribosyltransferase (Homo sapiens, UniProt P43490). Briefly: Inhibition of recombinant NAMPT (unknown origin) incubated for 60 mins by SpectraMax microplate reader analysis.
Chain of Nicotinamide phosphoribosyltransferase (P43490 whole entry): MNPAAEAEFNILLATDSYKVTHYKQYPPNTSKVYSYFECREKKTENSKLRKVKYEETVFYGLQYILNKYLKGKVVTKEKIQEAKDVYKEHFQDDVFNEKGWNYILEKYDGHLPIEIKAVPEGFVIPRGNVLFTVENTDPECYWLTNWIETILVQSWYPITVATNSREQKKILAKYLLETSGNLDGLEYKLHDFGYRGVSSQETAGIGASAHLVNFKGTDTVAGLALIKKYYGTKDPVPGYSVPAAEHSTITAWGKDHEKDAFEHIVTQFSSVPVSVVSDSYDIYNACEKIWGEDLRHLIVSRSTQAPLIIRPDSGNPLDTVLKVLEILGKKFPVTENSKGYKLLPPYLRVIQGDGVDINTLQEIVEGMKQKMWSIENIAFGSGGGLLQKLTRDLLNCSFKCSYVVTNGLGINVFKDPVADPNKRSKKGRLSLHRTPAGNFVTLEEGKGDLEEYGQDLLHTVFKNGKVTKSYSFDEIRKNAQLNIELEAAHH

T1 sequence (P14902 whole entry): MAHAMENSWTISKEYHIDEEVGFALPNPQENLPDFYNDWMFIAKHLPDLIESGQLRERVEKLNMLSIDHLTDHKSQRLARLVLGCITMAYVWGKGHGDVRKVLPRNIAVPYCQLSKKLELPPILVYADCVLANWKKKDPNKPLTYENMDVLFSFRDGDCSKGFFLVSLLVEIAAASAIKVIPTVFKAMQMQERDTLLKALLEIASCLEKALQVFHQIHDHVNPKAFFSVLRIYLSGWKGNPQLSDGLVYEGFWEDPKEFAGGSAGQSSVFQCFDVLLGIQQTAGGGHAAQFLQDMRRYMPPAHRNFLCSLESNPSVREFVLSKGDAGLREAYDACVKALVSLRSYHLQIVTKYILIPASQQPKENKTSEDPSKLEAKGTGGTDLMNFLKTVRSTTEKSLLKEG

On to `O=C(CCNc1nonc1/C(=N/O)Nc1ccc(F)c(Br)c1)Nc1ccc(CNC(=O)c2ccc3nccn3c2)cc1`, for which the pIC50 is 6.82 in assay [1] and 6.79 in assay [2].
Take `CC(=O)O[C@H]1C(=O)[C@@]2(C)[C@H]([C@H](OC(=O)c3ccccc3)[C@]3(O)C[C@H](OC(=O)[C@H](O)[C@@H](NC(=O)c4ccccc4)c4ccccc4)C(C)=C1C3(C)C)[C@]1(OC(C)=O)CO[C@@H]1C[C@@H]2O` [PACLITAXEL]: the inhibition in vivo at 2 mg/kg in assay [3] was determined as 20.2%. For the same molecule, in assay [4], the outcome was Active.
As for `O=C(/C=C/c1cccnc1)NCCCCC1CCN(C(=O)c2ccccc2)CC1` [DAPORINAD], the pIC50 was 4.46 in assay [5] and 4.28 in assay [6].
Take `O=C(NCc1ccc(CNc2nonc2/C(=N/O)Nc2ccc(F)c(Br)c2)cc1)c1ccc2nccn2c1`: the pIC50 in assay [7] was 5.31; in assay [1], < 6.00.
Take `O=C(CCCNc1nonc1/C(=N/O)Nc1ccc(F)c(Br)c1)Nc1ccc(CNC(=O)c2ccc3nccn3c2)cc1`: the pIC50 in assay [7] is < 5.00; in assay [1], 6.14; in assay [2], 6.18.
For the molecule `O=C(CCCCNc1nonc1/C(=N/O)Nc1ccc(F)c(Br)c1)Nc1ccc(CNC(=O)c2ccc3nccn3c2)cc1`, the pIC50 in assay [1] is 6.12; in assay [2] it was 6.19.
As for `O=C(NCCNc1nonc1/C(=N/O)Nc1ccc(F)c(Br)c1)c1ccc2nccn2c1`, the pIC50 in assay [1] and in assay [2] was < 6.00 in each case.
Take `O=C(NCCCCNc1nonc1/C(=N/O)Nc1ccc(F)c(Br)c1)c1ccc(CNC(=O)c2ccc3nccn3c2)cc1`: the pIC50 in assay [1] was 6.08; in assay [2], 6.17.

The record behind these values is ChEMBL document CHEMBL5316301, “Dual Nicotinamide Phosphoribosyltransferase (NAMPT) and Indoleamine 2,3-Dioxygenase 1 (IDO1) Inhibitors for the Treatment of Drug-Resistant Nonsmall-Cell Lung Cancer” (J Med Chem, 2023).
